Laboratory results reported in patent US20230331803A1, “CO-AGONISTS OF THE GLP-1 AND AMYLIN RECEPTORS” (priority 2020, published 2023).
Read-outs that look alike come from different tables or passages of the source. Starred links: 1 amine or outer side, 2 acyl side, 3 side chain; linkers in the order of their positions; H or OH if unused. Non-standard residues stand in square brackets, D forms with d. Groups on a side chain read outwards from the residue. *: point of attachment. Decanoyl(10-(4-HOOC-PhO)) = O=C(O)c1ccc(OCCCCCCCCCC(=O)*)cc1; C20 diacid = O=C(O)CCCCCCCCCCCCCCCCCCC(=O)*; C18 diacid = O=C(O)CCCCCCCCCCCCCCCCC(=O)*; C16 diacid = O=C(O)CCCCCCCCCCCCCCC(=O)*; γGlu = O=C(O)[C@H](CCC(=O)[*:2])N[*:1]; εLys = N[C@@H](CCCCN[*:1])C(=O)[*:2]; Trx = NC[C@H]1CC[C@H](C(=O)O)CC1; AEEA = NCCOCCOCC(=O)O; Aib = CC(C)(N)C(=O)O

How the values were obtained:
human GLP-1 receptor = biological target: T1, human GLP-1 receptor (Homo sapiens, UniProt P43220); assay: Human GLP-1 receptor in vitro potency assay (CRE-luciferase reporter, BHK cells); assay type: cell-based
T1 construct: expressed in transfected cells; host or cells: BHK (Baby Hamster Kidney) cells, clone BHK 467-12A KZ-10, stably transfected, with CRE-luciferase reporter
Procedure: It is thus possible to measure GLP-1 receptor activity using a CRE-luciferase reporter gene introduced into Baby Hamster Kidney (BHK) cells co-expressing the GLP-1 receptor.
Cells were aliquoted and stored at -180° C. until use.
Plates were sealed and incubated at room temperature with gentle shaking for 30 minutes while protected from light. Luminescence was detected on a luminescence plate reader e.g. a Synergy 2 (BioTek).

[1] = biological target: T2, human amylin receptor (hAmyR3) (Homo sapiens, UniProt O60896+P30988); assay: Human amylin receptor in vitro potency assay (CRE-luciferase reporter, BHK cells); assay type: cell-based;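 note: BHK cells expressing human calcitonin receptor plus RAMP3 (amylin-3 receptor) with a CRE-luciferase reporter, agonist activity read as luminescence from cAMP-driven transcription, 7-point serial dilutions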
T2 construct: host or cells: BHK cells (Hollex-1 line: human calcitonin receptor (a) + CRE-Luc), further transfected with human RAMP3

[2] = Table 4a, BHK cells expressing human GLP-1R, CRE-Luc, 3 hours, read-out: Human GLP-1R potency [EC50 (pM)]
[3] = Table 4a, BHK hAmyR3/CRE-Luc cells, 3 hours, read-out: Human AmyR3 potency [EC50 (pM)]

T2 sequence (P30988 25-474): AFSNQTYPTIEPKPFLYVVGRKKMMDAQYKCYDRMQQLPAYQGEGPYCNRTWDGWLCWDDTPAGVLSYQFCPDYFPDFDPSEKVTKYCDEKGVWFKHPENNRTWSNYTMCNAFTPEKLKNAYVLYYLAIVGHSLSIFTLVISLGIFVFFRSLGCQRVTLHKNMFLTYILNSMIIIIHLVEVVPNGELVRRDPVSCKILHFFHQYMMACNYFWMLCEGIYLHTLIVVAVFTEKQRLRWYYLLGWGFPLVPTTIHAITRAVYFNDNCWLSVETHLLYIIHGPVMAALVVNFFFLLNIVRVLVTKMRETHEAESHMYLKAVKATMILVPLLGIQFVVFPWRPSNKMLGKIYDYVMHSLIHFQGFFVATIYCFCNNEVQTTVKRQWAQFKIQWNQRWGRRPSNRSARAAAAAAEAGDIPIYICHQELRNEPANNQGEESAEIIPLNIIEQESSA
T2 sequence (O60896 24-148): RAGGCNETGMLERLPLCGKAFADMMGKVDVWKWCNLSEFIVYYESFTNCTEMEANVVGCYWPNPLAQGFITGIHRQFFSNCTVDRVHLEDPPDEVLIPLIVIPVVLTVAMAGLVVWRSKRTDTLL
T1 sequence (P43220 24-463): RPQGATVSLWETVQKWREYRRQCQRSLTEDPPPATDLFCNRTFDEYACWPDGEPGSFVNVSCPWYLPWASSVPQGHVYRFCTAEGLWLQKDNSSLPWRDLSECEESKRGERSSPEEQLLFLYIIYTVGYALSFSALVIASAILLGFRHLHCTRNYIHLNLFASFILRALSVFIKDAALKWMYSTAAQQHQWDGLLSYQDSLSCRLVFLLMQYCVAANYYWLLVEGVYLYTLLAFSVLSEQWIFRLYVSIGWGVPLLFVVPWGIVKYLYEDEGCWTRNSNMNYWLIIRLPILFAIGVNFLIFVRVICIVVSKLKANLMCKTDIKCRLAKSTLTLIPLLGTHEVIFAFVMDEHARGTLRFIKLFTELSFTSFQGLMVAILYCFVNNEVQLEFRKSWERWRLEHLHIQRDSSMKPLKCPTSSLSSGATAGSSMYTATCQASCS

| Substance | EC50 (human GLP-1 receptor; [2]) [pM] | EC50 [1, 3] [pM] | EC50 (human GLP-1 receptor) [pM] | EC50 [1] [pM] |
| --- | --- | --- | --- | --- |
| HGEGTFTSDVSSYLEEQAARK([AEEA-AEEA-γGlu-Decanoyl(10-(4-HOOC-PhO))])FIEWLVRGK([AEEA-AEEA-γGlu-Decanoyl(10-(4-HOOC-PhO))])GEGGGGGEASELSTAALGRLSAELHELATLPRTETGSGSP-NH2 [Compound 0097] |  |  | 10 | 93.1 |
| HGEGTFTSDVSSYLEEQAARK([AEEA-AEEA-γGlu-Decanoyl(10-(4-HOOC-PhO))])FIEWLVRGK([AEEA-AEEA-γGlu-Decanoyl(10-(4-HOOC-PhO))])GEGGGGGGGGGEASELSTAALGRLSAELHELATLPRTETGSGSP-NH2 [Compound 0098] |  |  | 7.9 | 15.6 |
| HWEGTFTSD-K([2-[2-[2-[[2-[2-[2-[[(4S)-4-Carboxy-4-[[4-[(19-Carboxynonadecanoylamino)Methyl]Cyclohexanecarbonyl]Amino]Butanoyl]Amino]Ethoxy]Ethoxy]Acetyl]Amino]Ethoxy]Ethoxy]Acetyl])-SSYLEEQAAREFIEWLVRGRGEASELSTAALGRLSAELHELATLPRTETGSGSP-amide [Compound 0272] | 9.2 | 11.3 |  |  |
| HWEGTFTSD-K([(2S)-2-Amino-6-[[2-[2-[2-[[2-[2-[2-[[(4S)-4-Carboxy-4-[[4-[(19-Carboxynonadecanoylamino)Methyl]Cyclohexanecarbonyl]Amino]Butanoyl]Amino]Ethoxy]Ethoxy]Acetyl]Amino]Ethoxy]Ethoxy]Acetyl]Amino]Hex Anoyl])-SSYLEEQAAREFIEWLVRGRGEASELSTAALGRLSAELHELATLPRTETGSGSP-amide [Compound 0433] | 30.7 | 12.9 |  |  |
| HWEGTFTSDVSSYLEEQAARK([AEEA-AEEA-γGlu-Decanoyl(10-(4-HOOC-PhO))])FIEWLVRGK([AEEA-AEEA-γGlu-Decanoyl(10-(4-HOOC-PhO))])GEGEASELSTAALGRLSAELHELATLPRTETGSGSP-NH2 [Compound 0099] |  |  | 9.6 | 44.9 |
| HWEGTFTSDVSSYLEEQAARK([AEEA-AEEA-γGlu-Decanoyl(10-(4-HOOC-PhO))])FIEWLVRGK([AEEA-AEEA-γGlu-Decanoyl(10-(4-HOOC-PhO))])GEGGGGGGGGGEASELSTAALGRLSAELHELATLPRTETGSGSP-NH2 [Compound 0101] |  |  | 7.1 | 10.2 |
| H[Aib]EGTFTSDVSSYLEEQAARK([AEEA-AEEA-γGlu-C16 diacid])FIAWLVRGK([AEEA-AEEA-γGlu-C16 diacid])GGGEASELSTAALGRLSAELHELATLPRTETGSGSP-NH2 [Compound 0076] | 1.7 | 46.4 |  |  |
| H[Aib]EGTFTSDVSSYLEEQAARK([εLys-AEEA-AEEA-γGlu-C18 diacid])FIAWLVRGK([εLys-AEEA-AEEA-γGlu-C18 diacid])GGGGGGGGGEASELSTAALGRLSAELHELATLPRTETGSGSP-NH2 [Compound 0110] |  |  | 2.7 | 40.7 |

The next lines start with results.

| EC50 (human GLP-1 receptor; [2]) [pM] | EC50 [1, 3] [pM] | Substance | EC50 (human GLP-1 receptor) [pM] | EC50 [1] [pM] |
| --- | --- | --- | --- | --- |
| 5.4 | 37 | H-H[Aib]EGTFTSDVSSYLEGQAAREFIAWLVRGRGEGEGEK([AEEA-AEEA-γGlu-C18 diacid])EASELSTAALGRLSAELHELATLPRTETGSGSP-NH2 [Compound 0010] |  |  |
| 2.2 | 55.8 | H-H[Aib]EGTFTSDVSSYLEGQAAREFIAWLVRGRGQEPGQAPK([AEEA-AEEA-γGlu-C18 diacid])EASELSTAALGRLSAELHELATLPRTETGSGSP-NH2 [Compound 0085] |  |  |
| 5.9 | 54.8 | H-H[Aib]EGTFTSDVSSYLEGQAAREFIAWLVRGRGQEPK([AEEA-AEEA-γGlu-C18 diacid])GQAPASRLSTEALGRLSAELHELATLPRTETGSGSP-NH2 [Compound 0191] |  |  |
| 5.4 | 46.2 | H-H[Aib]EGTFTSDVSSYLEGQAAREFIAWLVRGRK([AEEA-AEEA-γGlu-C18 diacid])GQEPGQAPEASELSTAALGRLSAELHELATLPRTETGSGSP-NH2 [Compound 0083] |  |  |
| 13.7 | 34.3 | H-H[Aib]EGTFTSDVSSYLEK([AEEA-AEEA-γGlu-C16 diacid])QAAREFIAWLVRGRGGGGGASELSTAALGRLSK([AEEA-AEEA-γGlu-C16 diacid])ELHELATLPRTETGSGSP-NH2 [Compound 0294] |  |  |
| 97.8 | 21 | H-H[Aib]EGTFTSK([AEEA-AEEA-γGlu-Trx-C20 diacid])VSSYLEEQAAREFIEWLVRGRGEASELSTAALGRLSAELHELATLPRTETGSGSP-NH2 [Compound 0417] |  |  |
| 2.8 | 24 | HAEGTFTSDVSSYLEEK([AEEA-AEEA-γGlu-C18 diacid])AAREFIEWLVRGRGEASELSTAALGRLSAELHELATLPRTETGSGSP-NH2 [Compound 0472] |  |  |
| 4.6 | 15.2 | HWEGTFTSDVSSYLEEK([AEEA-AEEA-γGlu-C18 diacid])AAREFIEWLVRGRGEASELSTAALGRLSAELHELATLPRTETGSGSP-NH2 [Compound 0271] |  |  |
| 3.1 | 16.2 | HWEGTFTSDVSSYLEEK([AEEA-AEEA-γGlu-C20 diacid])AAREFIEWLVRGRGEASELSTAALGRLSAELHELATLPRTETGSGSP-NH2 [Compound 0473] |  |  |
| 17 | 9.2 | HWEGTFTSDVSSYLEEQAAREFIAWLVRGRK([AEEA-AEEA-γGlu-C18 diacid])GGGGEASELSTAALGRLSAELHELATLPRTETGSGSP-NH2 [Compound 0648] |  |  |
| 7.1 | 63.9 | H[Aib]EGTFTSDVSSYLEEQAARK([AEEA-AEEA-γGlu-C18 diacid])FIAWLVRGK([AEEA-AEEA-γGlu-C18 diacid])GGEASELSTAALGRLSAELHELATLPRTETGSGSP-NH2 [Compound 0127] |  |  |
| 3.2 | 19.1 | H[Aib]EGTFTSDVSSYLEEQAARK([AEEA-AEEA-γGlu-C18 diacid])FIAWLVRGK([AEEA-AEEA-γGlu-C18 diacid])GGGGGGGGGEASELSTAALGRLSAELHELATLPRTETGSGSP-NH2 [Compound 0109] |  |  |
